The results in this text go back to patent US11519922B2, “Methods for identifying risk of chemotherapy-induced cardiotoxicity and targeted medical intervention” (Detroit R&D, Inc., priority 2018, dated 2022).

One assay deals with T1, sEH enzyme in H9c2 cells (Rattus norvegicus, UniProt P80299).
T1 construct: host or cells: H9c2 rat cardiomyocytes
T1 sequence (P80299 1-554): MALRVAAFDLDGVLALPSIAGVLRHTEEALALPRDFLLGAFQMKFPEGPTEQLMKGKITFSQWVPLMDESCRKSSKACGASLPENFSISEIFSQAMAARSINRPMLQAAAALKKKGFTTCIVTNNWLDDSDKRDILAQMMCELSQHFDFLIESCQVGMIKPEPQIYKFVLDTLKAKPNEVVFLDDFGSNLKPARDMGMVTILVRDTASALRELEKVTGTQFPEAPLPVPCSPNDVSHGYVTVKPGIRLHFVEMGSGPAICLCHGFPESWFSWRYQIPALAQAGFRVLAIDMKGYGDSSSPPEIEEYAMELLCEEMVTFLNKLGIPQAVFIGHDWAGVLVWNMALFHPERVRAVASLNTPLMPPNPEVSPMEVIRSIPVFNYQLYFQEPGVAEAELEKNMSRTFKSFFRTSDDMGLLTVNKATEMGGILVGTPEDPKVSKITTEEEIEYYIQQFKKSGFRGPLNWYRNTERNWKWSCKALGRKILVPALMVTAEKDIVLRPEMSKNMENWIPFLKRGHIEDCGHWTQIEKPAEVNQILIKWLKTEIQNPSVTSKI
The assay is described as follows: 14,15-DHET formation from added 14,15-EET by H9c2 cells. In kind it is cell-based. The method, then:
Expression of sEH enzyme in the cells was confirmed by detection of increased 14,15-DHET formation activity after 1 μM EET (substrate) treatment.
sEH enzyme converts 14,15-EET to 14,15-DHET, so differential levels of 14,15-DHET will reflect sEH activity. After addition of 1 μM 14,15-EET to H9c2 cells, ˜250 ng/ml 14,15-DHET was formed in cell media in 30 min and 4.5-fold higher level of 14,15-DHET was formed when the EET level was increased from 1 μM to 5 μM, verifying EET-dose-dependent 14,15-DHET formation by rat H9c2 cardiomyocyte cells.

A further assay addresses T2, recombinant sEH (Homo sapiens, UniProt P34913).
T2 sequence (P34913 1-555): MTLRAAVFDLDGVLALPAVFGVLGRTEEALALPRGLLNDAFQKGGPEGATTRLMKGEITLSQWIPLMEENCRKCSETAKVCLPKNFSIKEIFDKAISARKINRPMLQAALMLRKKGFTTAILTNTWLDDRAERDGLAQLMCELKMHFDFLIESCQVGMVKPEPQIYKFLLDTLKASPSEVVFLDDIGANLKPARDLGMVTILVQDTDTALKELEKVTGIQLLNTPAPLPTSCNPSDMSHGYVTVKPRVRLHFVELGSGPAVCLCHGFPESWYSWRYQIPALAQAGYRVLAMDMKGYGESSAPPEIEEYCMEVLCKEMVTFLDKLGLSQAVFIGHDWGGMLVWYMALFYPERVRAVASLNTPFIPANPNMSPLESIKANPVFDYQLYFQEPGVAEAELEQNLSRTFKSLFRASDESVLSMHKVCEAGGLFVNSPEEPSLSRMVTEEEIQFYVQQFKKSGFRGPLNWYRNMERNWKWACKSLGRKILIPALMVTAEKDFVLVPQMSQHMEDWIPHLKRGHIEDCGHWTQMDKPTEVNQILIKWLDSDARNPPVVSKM
Put plainly: Inhibition of EET-dependent sEH activity, reconstituted system. Format: biochemical.

Assay [1] has as its target T3, sEH in human kidney cells (ACHN) (Homo sapiens, UniProt P34913).
T3 construct: recombinant sEH and human kidney cells (ACHN); endogenous in cells; host or cells: ACHN human kidney cells
T3 sequence (P34913 1-555): T2 sequence (P34913 1-555)
Put plainly: Inhibition of EET-dependent sEH activity in kidney cells. Format: cell-based. To be noted: EET 1 μM.

SMILES strings stand for the structures.

For `CCCCCC1OC1C/C=C\C/C=C\C/C=C\CCCC(=O)O` (centres unmarked) [14,15-EET], on sEH enzyme in H9c2 cells (1 μM 14,15-EET, 30 min), the “14,15-DHET formed in cell media” value was about 250 ng/mL. In addition, the “higher level of 14,15-DHET formed” value at sEH enzyme in H9c2 cells (EET level increased from 1 μM to 5 μM) stood at 4.5 fold.

Take `C=CCc1ccc(O)c(-c2ccc(O)c(CC=C)c2)c1` [Honokiol]: the “EET-dependent sEH activity” value on recombinant sEH (EET 1 μM, reconstituted system with recombinant sEH) is recorded as “inhibited”; in assay [1], “inhibited”. In addition, the “inhibitor of the sEH activity (overall statement)” value on recombinant sEH (recombinant sEH and ACHN cells) was “potent inhibitors”.
